Data as given in patent US7495027B2, “3-aryl-4-hydroxyfuranone compounds and the human and animal health use thereof” (Wyeth, priority 2003, dated 2009).
In brackets after ≈: the same amount, converted by molar mass. Where two headings read alike, the source gives them in different places.

Key:
Streptococci = experiment: Minimum inhibitory concentration, microdilution broth method, streptococci; format: cell-based; conditions: Mueller-Hinton broth with 5% horse blood, 18-22 hours at 35° C.; for MIC: S. pneumo GC 1894
Description: (§1) Evaluation of the Minimum Inhibitory Concentration of Test Compounds Against A Variety of Bacterial Strains
(§2) In this evaluation the minimal inhibitory concentration (MIC) of test compounds against Gram positive and Gram negative bacteria is performed using the microdilution broth method as recommended by the National Committee for Clinical Laboratory Standards (Approved Standards M7-A5 2000). Mueller-Hinton broth is used for the enterobacteriaceae, staphylococci and enterococci. Streptococci are also tested in Mueller-Hinton broth supplemented with 5% horse blood (LHB). Test organisms include recent clinical isolates that are resistant to methicillin, penicillin and/or vancomycin. […].

staphylococci = experiment: Minimum inhibitory concentration, microdilution broth method, staphylococci; format: cell-based; conditions: Mueller-Hinton broth, 18-22 hours at 35° C.; for MIC: Staphylococcus aureus
Description: as §1, §2

enterococci = experiment: Minimum inhibitory concentration, microdilution broth method, enterococci; format: cell-based; conditions: Mueller-Hinton broth, 18-22 hours at 35° C.; for MIC: Enterococcus faecalis
Description: as §1, §2

[1] = target: E. coli Uridine-diphosphate-N-acetvimuramoyl: L-alanine lipase, MurC (Escherichia coli, UniProt P17952); experiment: Inhibitory activity against MurC (E. coli); format: biochemical; conditions: (E) E. coli enzyme; for IC50: read-out: MurC IC50 (converted)
Sequence of E. coli Uridine-diphosphate-N-acetvimuramoyl: L-alanine lipase, MurC (P17952 whole entry): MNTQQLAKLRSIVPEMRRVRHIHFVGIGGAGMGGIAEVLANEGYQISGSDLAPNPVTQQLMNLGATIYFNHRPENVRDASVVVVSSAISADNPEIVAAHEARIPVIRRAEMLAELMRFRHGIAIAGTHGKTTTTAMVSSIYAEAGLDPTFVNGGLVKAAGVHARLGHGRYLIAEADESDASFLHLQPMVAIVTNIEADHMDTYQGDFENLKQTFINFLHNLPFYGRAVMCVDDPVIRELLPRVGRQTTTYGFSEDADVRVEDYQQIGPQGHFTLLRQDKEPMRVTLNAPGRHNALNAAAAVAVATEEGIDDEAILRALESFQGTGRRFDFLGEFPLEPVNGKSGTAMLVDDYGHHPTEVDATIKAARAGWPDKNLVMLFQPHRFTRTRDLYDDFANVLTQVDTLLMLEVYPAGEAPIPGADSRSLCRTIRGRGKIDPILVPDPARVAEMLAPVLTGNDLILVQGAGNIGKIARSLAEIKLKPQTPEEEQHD
Description: S. aureus and E. coli Uridine-diphosphate-N-acetvimuramoyl: L-alanine lipase, MurC
The buffer is prepared from aqueous reagents with the following final concentrations: 83 mM Tris/HCl (pH 8.0), 50 mM MgC12, and 2 mM ATP.
(§3) Preparation of Enzyme Solution:
A 1 mg/mL stock solution of MurC is prepared in a buffer consisting of 20 mM Tris/HCl (pH 8.5) with 2.5 μM BME. The stock solution is further diluted with the buffer to give a final enzyme concentration of 100 μg/mL for the E. coli stock solution and 70 μg/mL for the S. aureus stock solution.
(§4) Preparation of Test Compound Solutions:
(§5) All test solutions are prepared in DMSO as 10 mg/mL, then diluted with 50 mM Tris/HCl (pH 8.5) to 100 μg/mL.
(§6) Preparation of Stop Solution:
The stop solution is prepared by stirring 1 part 4.2% ammonium molydbate in 4N HCl with 2 parts 0.045% malachite green for 30 min.
In this evaluation, the inhibitory activity of a test compound against MurC, the enzyme which catalyzes the third step of bacterial cell wall bioxynthesis is determined. Experiments are performed by adding 2.5 μl buffer, 2.5 μl 0.5M NH4SO2, 5 μl 2 μM L-Ala, 5 μl enzyme solution and 6.5 μl test compound solution to each well in a 96-well microplate. After a pre-incubation period of 10 mins. at 23° C., 3.75 μl of a 0.75 μM solution of UDP-MurNac is added to each well. Following an incubation period of 10 mins. at 37° C., 210 μl stop solution and 50 μl of a 34% w/v sodium citrate solution are added and color is allowed to develop for 10 mins. at 23° C. (Lanzetta et al., Analytical Biochemistry, 1979, 95) Optical density readings are taken at 660 nm using a Molecular Devices Spectra Max 250 with Soft Max software. Controls are performed using the same procedure and omitting the addition of UDP-MurNac.
Using these values the IC50 is determined by linear regression analysis.

[2] = target: E. coli Enopyruvyl-UPD-N-acetylglucosamine reductase, Mur B (Escherichia coli, UniProt P08373); experiment: biochemical; conditions: (E) E. coli enzyme; for IC50: read-out: MurB IC50 (converted)
Sequence of E. coli Enopyruvyl-UPD-N-acetylglucosamine reductase, Mur B (P08373 whole entry): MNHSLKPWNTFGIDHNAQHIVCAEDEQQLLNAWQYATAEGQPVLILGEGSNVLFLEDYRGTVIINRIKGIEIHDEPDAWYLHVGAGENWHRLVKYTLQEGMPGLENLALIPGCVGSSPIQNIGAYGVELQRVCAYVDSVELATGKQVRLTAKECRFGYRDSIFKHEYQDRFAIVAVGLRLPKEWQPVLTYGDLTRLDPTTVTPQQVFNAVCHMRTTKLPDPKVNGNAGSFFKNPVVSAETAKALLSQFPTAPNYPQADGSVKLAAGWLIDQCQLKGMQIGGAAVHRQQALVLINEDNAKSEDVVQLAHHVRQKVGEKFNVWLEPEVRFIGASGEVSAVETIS
Description: S. aureus and E. coli Enopyruvyl-UPD-N-acetylglucosamine reductase, Mur B
Preparation of Tris/BME buffer:
Dilute 17.5 uL of aqueous 5 mM BME (2-mercaptoethanol) to 50 mL with 50 mM Tris/HCl (pH 8.0).
as §3
Dilute aqueous MurB stock solution (0.94 mg/mL) with 200 parts 50 mM Tris/2-BME buffer.
Synthesis of Substrate for MurB (MurA Product EP-UDP-GluNAc):
A mixture of 13 mg UDP-N-acetylglucosamine and 5.5 mg phosphoenolpyruvate are dissolved in 10 mL Tris/BME buffer forming 2 mM concentrations of each reagent in solution.
Preparation of Assay Buffer:
The assay buffer is prepared in water from reagents with the following final concentrations: 100 mM Tris/HCl (pH 8.0), 200 μM NADPH, 100 μM MurB substrate, 10 μM 2-mercaptoethanol, and 10 μM KCl.
Experiments are performed by adding 20 μL of a solution of test compound in a mixture of dimethylsulfoxide and water and 30 μL of enzyme solution to a well. After a pre-incubation period of 20 mins. at 23° C., 50 μL of Tris/BME buffer and 100 μL of assay buffer are added. […] Controls are performed using the same procedure and employing 20 μL of a blank dimethylsulfonide and solvent mixture in place of the test compound solution.
Using these values, the IC50 for each test compound is determined by linear regression analysis.

[3] = target: T1, S. aureus Uridine-diphosphate-N-acetylmuramoyl-L-alanine: D-glutamate liease, MurD (Staphylococcus aureus, UniProt Q2FZ92); experiment: biochemical; conditions: (S) S. aureus enzyme
T1 sequence (Q2FZ92 1-449): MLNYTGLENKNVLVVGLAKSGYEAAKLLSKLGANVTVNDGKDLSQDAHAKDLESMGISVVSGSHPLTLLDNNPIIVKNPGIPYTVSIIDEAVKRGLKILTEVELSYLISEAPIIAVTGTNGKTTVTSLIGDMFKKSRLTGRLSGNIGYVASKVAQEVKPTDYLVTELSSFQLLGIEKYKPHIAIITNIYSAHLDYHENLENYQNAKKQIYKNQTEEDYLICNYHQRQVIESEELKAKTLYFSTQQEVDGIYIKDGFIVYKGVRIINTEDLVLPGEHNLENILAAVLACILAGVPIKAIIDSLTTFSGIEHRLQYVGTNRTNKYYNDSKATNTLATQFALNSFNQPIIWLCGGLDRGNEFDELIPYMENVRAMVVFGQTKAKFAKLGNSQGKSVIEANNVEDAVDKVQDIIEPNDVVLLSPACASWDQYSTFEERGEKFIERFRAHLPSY
Description: (§7) S. aureus and E. coli Uridine-diphosphate-N-acetylmuramoyl-L-alanine: D-glutamate liease, MurD
as §3, §4, §5, §6
(§8) In this evaluation, the inhibitory activity of a test compound against MurD, the enzyme which catalyzes the fourth step of bacterial cell wall biosynthesis is determined.

[4] = target: E. coli UDP-N-acetylglucosamine enolpyruvoyl transferase, MurA (Escherichia coli, UniProt P0A749); experiment: biochemical; conditions: (E) E. coli enzyme
Sequence of E. coli UDP-N-acetylglucosamine enolpyruvoyl transferase, MurA (P0A749 whole entry): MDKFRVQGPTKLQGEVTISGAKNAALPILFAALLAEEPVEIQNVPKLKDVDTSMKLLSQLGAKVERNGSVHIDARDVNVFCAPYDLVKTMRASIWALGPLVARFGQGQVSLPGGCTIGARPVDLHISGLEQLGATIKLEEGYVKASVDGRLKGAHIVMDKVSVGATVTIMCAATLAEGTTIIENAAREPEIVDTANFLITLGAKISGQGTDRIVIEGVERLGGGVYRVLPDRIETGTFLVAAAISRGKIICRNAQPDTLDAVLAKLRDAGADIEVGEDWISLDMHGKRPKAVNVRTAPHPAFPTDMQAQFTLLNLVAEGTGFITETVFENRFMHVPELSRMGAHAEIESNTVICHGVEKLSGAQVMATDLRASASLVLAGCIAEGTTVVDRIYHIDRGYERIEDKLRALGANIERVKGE
Description: Evaluation of the Inhibitory Activity of Test Compounds Against Enzymes which Catalyze Bacterial Cell Wall Biosynthesis
S. aureus and E. coli UDP-N-acetylglucosamine enolpyruvoyl transferase, MurA
as §3
The enzyme solution is prepared by admixing the following: 50 mM Tris/HCl pH 8.0, […] 1 M Tris, 5 mM DTT, […] 1 M DTT, 20% Glycerol 4 ml 50% Glycerol, add water to 10 ml.
as §6
A procedure similar to that described by C. […] Experiments are performed by adding a solution of test compound (in a mixture of dimethylsulfoxide and water) and an enzyme solution to a well. After a pre-incubation period of 10 mintues at 37° C., Tris/BME buffer and assay buffer are added. A start point optical density (OD0) reading is taken at 340 nm immediately following the addition of assay buffer. After incubation for 1 hr at 37° C., the stop solution is added and the color is allowed to develop for 30 minutes.

[5] = target: E. coli Uridine-diphosphate-N-acetylmuramoyl-L-alanine: D-glutamate liease, MurD (Escherichia coli, UniProt P14900); experiment: biochemical; conditions: (E) E. coli enzyme
Sequence of E. coli Uridine-diphosphate-N-acetylmuramoyl-L-alanine: D-glutamate liease, MurD (P14900 whole entry): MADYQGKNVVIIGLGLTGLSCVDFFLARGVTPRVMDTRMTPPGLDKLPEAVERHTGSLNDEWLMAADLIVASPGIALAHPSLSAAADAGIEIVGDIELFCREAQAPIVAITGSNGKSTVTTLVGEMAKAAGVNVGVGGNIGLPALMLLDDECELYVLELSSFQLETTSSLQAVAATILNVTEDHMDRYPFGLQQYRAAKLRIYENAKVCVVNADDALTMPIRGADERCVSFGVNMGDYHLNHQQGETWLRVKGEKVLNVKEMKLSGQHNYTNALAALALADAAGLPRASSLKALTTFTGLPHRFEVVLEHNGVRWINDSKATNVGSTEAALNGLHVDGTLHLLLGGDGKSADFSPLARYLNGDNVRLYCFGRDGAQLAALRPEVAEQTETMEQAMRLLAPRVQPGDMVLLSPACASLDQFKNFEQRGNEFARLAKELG
Description: as §7
The buffer is prepared from aqueous reagents with the following final concentrations: 83 mM Tris/HCl (pH 8.0), 50 mM MgCl2, and 2 mM ATP.
as §3, §4, §5, §6, §8

[6] = S. aureus GC 1131, read-out: MIC S. aureus GC 1131
[7] = S. aureus GC 4543, read-out: MIC S. aureus GC 4543
[8] = E. faecalis GC 2242, read-out: MIC E. faecalis GC 2242
[9] = E. faecalis GC 4555, read-out: MIC E. faecalis GC 4555

For `O=C1O/C(=C\c2ccc(-c3ccccc3)cc2)C(O)=C1c1ccc2ccccc2c1` [Example 45], the MIC (Streptococci) was 2 µg/mL (≈ 5.12 µM), the MIC (staphylococci; [6]) was 16 µg/mL (≈ 41 µM) and the MIC (staphylococci; [7]) was 4 µg/mL (≈ 10.2 µM). For the same compound, the MIC (enterococci; [8]) was 4 µg/mL (≈ 10.2 µM), the MIC (enterococci; [9]) was 8 µg/mL (≈ 20.5 µM) and the “MurC IC50” value [1] was 10 (E) μg/mL. For the same compound, the “MurB IC50” value [2] was 2 (E) μg/mL and the IC50 [3] was > 64 µM.
`O=C1O/C(=C\c2cccc(C(F)(F)F)c2)C(O)=C1c1cccc2ccccc12` [Example 48] gave an MIC (Streptococci) of 8 µg/mL (≈ 20.9 µM), an MIC (staphylococci; [6]) of 32 µg/mL (≈ 83.7 µM) and an MIC (staphylococci; [7]) of 64 µg/mL (≈ 167 µM). The MIC (enterococci; [8]) was 32 µg/mL (≈ 83.7 µM), the MIC (enterococci; [9]) was > 128 µg/mL and the “MurC IC50” value [1] was 13 (E) μg/mL.
`O=C1O/C(=C\c2cccc(C(F)(F)F)c2)C(O)=C1c1ccc(-c2ccccc2)cc1` [Example 130] was tested, and the MIC (Streptococci) was 0.5 µg/mL (≈ 1.22 µM), the MIC (staphylococci; [6]) was 4 µg/mL (≈ 9.79 µM) and the MIC (staphylococci; [7]) was 4 µg/mL (≈ 9.79 µM). The MIC (enterococci; [8]) was 8 µg/mL (≈ 19.6 µM), the MIC (enterococci; [9]) was 4 µg/mL (≈ 9.79 µM) and the “MurC IC50” value [1] was 8 (E) μg/mL. For the same compound, the IC50 [2] was 22 µM and the “MurA IC50” value [4] was 17 (E) μg/mL.
In the case of `O=C1O/C(=C\c2cc(F)cc(C(F)(F)F)c2)C(O)=C1c1cccc(-c2ccccc2)c1` [Example 109], the IC50 [5] is reported as > 58.6 µM, the MIC (Streptococci) is reported as 0.25 µg/mL (≈ 0.586 µM) and the MIC (staphylococci; [6]) is reported as 2 µg/mL (≈ 4.69 µM). It also gave an MIC (staphylococci; [7]) of 2 µg/mL (≈ 4.69 µM), an MIC (enterococci; [8]) of 1 µg/mL (≈ 2.35 µM) and an MIC (enterococci; [9]) of 4 µg/mL (≈ 9.38 µM). The IC50 [1] was 23.5 µM and the IC50 [2] was 9.38 µM.
With `O=C1O/C(=C\c2cc(F)cc(C(F)(F)F)c2)C(O)=C1c1cccc(-c2ccccc2)c1` [Example 112] the IC50 [5] was > 58.6 µM, the “MIC S. pneumo GC 1894” value (Streptococci) was 0.25 µg/mL (≈ 0.586 µM) and the “MIC S. aureus GC 1131” value (staphylococci; S. aureus GC 1131) was 2 µg/mL (≈ 4.69 µM). The “MIC S. aureus GC 4543” value (staphylococci; S. aureus GC 4543) was 4 µg/mL (≈ 9.38 µM), the “MIC E. faecalis GC 2242” value (enterococci; E. faecalis GC 2242) was 2 µg/mL (≈ 4.69 µM) and the “MIC E. faecalis GC 4555” value (enterococci; E. faecalis GC 4555) was 8 µg/mL (≈ 18.8 µM). For the same compound, the IC50 [1] was 23.5 µM and the IC50 [2] was 11.7 µM.
Work on `O=C1O/C(=C\c2ccc(-c3ccccc3)cc2)C(O)=C1c1cccc2ccccc12` [Example 50] yielded an MIC (Streptococci) of 4 µg/mL (≈ 10.2 µM), an MIC (staphylococci; [6]) of 8 µg/mL (≈ 20.5 µM) and an MIC (staphylococci; [7]) of 4 µg/mL (≈ 10.2 µM). The MIC (enterococci; [8]) was 8 µg/mL (≈ 20.5 µM), the MIC (enterococci; [9]) was 32 µg/mL (≈ 82 µM) and the “MurC IC50” value [1] was 9 (E) μg/mL. The “MurA IC50” value [4] was 16 (E) μg/mL.
`O=C1O/C(=C\c2ccc(Cl)cc2)C(O)=C1c1ccc(-c2ccccc2)cc1` [Example 139] was tested, and the MIC (Streptococci) was 1 µg/mL (≈ 2.67 µM), the MIC (staphylococci; [6]) was 16 µg/mL (≈ 42.7 µM) and the MIC (staphylococci; [7]) was 16 µg/mL (≈ 42.7 µM). The MIC (enterococci; [8]) was 4 µg/mL (≈ 10.7 µM), the MIC (enterococci; [9]) was 8 µg/mL (≈ 21.3 µM) and the “MurC IC50” value [1] was 16 (E) μg/mL. It also gave an IC50 [2] of 16 µM.
